Source: article PMC8147293, “Library of Selenocyanate and Diselenide Derivatives as In Vivo Antichagasic Compounds Targeting Trypanosoma cruzi Mitochondrion” (Pharmaceuticals, 2021)
Like-named read-outs stand apart in the source and are kept apart here.

Legend:
[1] = tested on: epimastigotes of T. cruzi Arequipa strain; experiment: Screening against extracellular epimastigotes (resazurin); assay type: cell-based, Trypanosoma cruzi; conditions: for Selectivity Index Epimast.: IC50 Vero cells/IC50 epimastigotes; for IC50: Trypanosoma cruzi
Description: Trypanocidal activity against epimastigotes of T. cruzi Arequipa strain (MHOM/Pe/2011/Arequipa, discrete typing unit V) was tested as previously described. In short, 5 × 10^5 epimastigotes·mL^−1 were treated by adding the tested compounds at a concentration range from 100 to 0.2 µM in 96-well microplates (200 µL·well^−1) for 48 h. Subsequently, resazurin sodium salt (Sigma-Aldrich) was added to be incubated for further 24 h. Finally, the absorbance was measured, and the trypanocidal activity was expressed as the IC50 (inhibitory concentration 50) using GraphPad Prism 6 software. Each compound concentration was tested in triplicate in three independent experiments.

[2] = target: T1, human erythrocytes CuZn-SOD (Homo sapiens, UniProt P00441); experiment: SOD enzymatic inhibition, CuZn-SOD; assay type: biochemical; conditions: 100 to 0.1 µM, read-out: CuZn-SOD IC50 (in brackets)
T1 construct: commercial Cu/Zn-SOD from human erythrocytes (Sigma-Aldrich); purchased Sigma-Aldrich; host or cells: human erythrocytes
Description: (§1) Excreted Fe-SOD protein—obtained and quantified as previously described [64]—and commercial Cu/Zn-SOD from human erythrocytes (Sigma-Aldrich) were exposed to the tested compounds at a concentration range from 100 to 0.1 µM to determine in vitro activities using the method previously described.

[3] = tested on: Trypanosoma cruzi amastigotes in Vero cells; experiment: Infection rate and amastigotes per Vero cell over 10 days; assay type: cell-based; conditions: IC25 concentrations, measured at 2 days intervals for 10 days
Description: Before going ahead on in vivo trials, the in vitro infection rate and the average number of amastigotes per Vero cell were also measured at 2 days intervals for 10 days after treating the infected cultures with BZN and potential candidates (8, 10, and 15) (Figure 1) at ICH25 concentrations resulting from amastigotes screening. […]. Fast-acting drugs are urgently needed, and this feature is an additional advantage since they can eliminate the parasite in a few doses.
(§2) Trypanocidal activity against amastigotes was determined according to the literature reported previously. […]. […] Each compound concentration was tested in triplicate in four separate determinations.
Figure 1 (A) Percentage of infected Vero cells and (B) number of amastigotes of Trypanosoma cruzi per Vero cell exposed to benznidazole (BZN), 8, 10 and 15. Values constitute means of three separate determinations ± standard deviation. * Significant differences between untreated and treated parasites for α = 0.05. dpi, days post-infection.

[4] = tested on: Trypanosoma cruzi bloodstream trypomastigotes (BTs); experiment: Screening against bloodstream trypomastigotes (resazurin); assay type: cell-based; conditions: for Selectivity Index Trypomast.: IC50 Vero cells/IC50 trypomastigotes; for IC50: Trypanosoma cruzi, Table 1, bloodstream trypomastigotes, 24 h treatment + 4 h resazurin, read-out: Activity IC50 Trypomast.
Description: 2 × 10^6 Bloodstream trypomastigotes (BTs), obtained by cardiac puncture from infected BALB/c mice as previously described, were treated by adding the tested compounds at a concentration range from 50 to 0.1 µM in 96-well microplates (200 µL·well^−1) at 37 °C. After 24 h of treatment, resazurin sodium salt (Sigma-Aldrich) was added to be incubated for further 4 h. Finally, trypanocidal activity was determined following the same procedure as described to assess the trypanocidal activity in the epimastigotes. Each compound concentration was tested in triplicate in three independent experiments.

[5] = tested on: Mammalian Vero cells; experiment: Cytotoxicity test on Vero cells (resazurin); assay type: cell-based; conditions: Chlorocebus sabaeus, Table 1, Vero cells, 48 h + 24 h resazurin, read-out: Toxicity IC50 Vero Cell; for CC50: 72 h
Description: Mammalian Vero cells (EACC No. 84113001), cultured as previously reported, were used to determine the cytotoxicity of the tested compounds [56]. In short, 1.25 × 10^4 Vero cells·mL^−1 were treated by adding the compounds at a concentration range from 400 to 1 µM in 96-well microplates (200 µL·well^−1) at 37 °C for 48 h. Subsequently, resazurin sodium salt (Sigma-Aldrich) was added to be incubated for further 24 h. Finally, cell viability was determined following the same procedure as described to assess the trypanocidal activity in the epimastigotes. Each compound concentration was tested in triplicate in three independent experiments.

[6] = tested on: epimastigotes of T. cruzi Arequipa; experiment: 1H NMR analysis of excreted metabolites; assay type: cell-based, Trypanosoma cruzi; conditions: IC25 concentrations, 72 h
Description: 5 × 10^5 epimastigotes·mL^−1 of T. cruzi Arequipa were treated by adding the tested compounds at IC25 concentrations in 25 cm^2 cell culture flasks at 28 °C for 72 h. Untreated controls were also included. Cultures were then centrifuged and filtered, and the metabolites of the supernatants were analyzed using a ^1H NMR spectrometer (VARIAN DIRECT DRIVE 500 MHz […]) with AutoX probe, D2O as solvent and 2,2-dimethyl-2-silapentane-5-sulphonate as the reference signal. Chemical shifts were expressed in parts per million (ppm), and analyses were conducted as previously reported.

[7] = tested on: Trypanosoma cruzi; experiment: Anti-T. cruzi IgG (ELISA) and splenomegaly in treated BALB/c mice; assay type: in vivo; conditions: treated BALB/c mice versus untreated; excluding IgG levels of chronic CD
Description: Otherwise, the immune status of the mice was evaluated—through the titer of total anti-T. cruzi IgG and the splenomegaly (Figure S1)—since it is a characteristic linked to the parasite load and the effectiveness ascribed to the potential candidates. […].
(§3) All in vivo assays for the evaluation of compounds in the acute and chronic CD (Scheme 1)—monitoring of parasitemia, immunosuppression, PCR [59, 60], ELISA [56], and clinical analysis [56]—were performed as previously described. PCR was based on the Spliced Leader (SL) intergenic region sequence of T. cruzi (for detailed description, see literature reported previously).
Figure S1. A) Anti-Trypanosoma cruzi immunoglobulin G levels, expressed in absorbance at 492 nm, at different days post-infection (dpi) for each group of mice treated during the acute and chronic phases of Chagas disease: control (untreated), benznidazole (BZN), 8, 10 and 15. Blank and uninfected mice are also […]
included. […] Values are the means of three mice ± standard deviation. (IS) immunosuppression. * Significant differences between untreated and treated mice for α =
0.05. B) Weight percentage of spleens in the chronic Chagas disease for each group of mice treated during the acute and chronic phases of the disease: control (untreated), benznidazole (BZN), 8, 10 and 15. Values are the means of three mice ± standard deviation. In brackets: reduction of splenomegaly in comparison to […]
(§4) (1 picture or pasted object on this page, not shown here)

[8] = tested on: Trypanosoma cruzi; experiment: Parasitemia monitoring in infected BALB/c mice, acute Chagas disease; assay type: in vivo; conditions: oral 20 mg/kg per day for 5 days from 9th dpi, versus untreated
Description: (§5) Infection was carried out by intraperitoneal inoculation of 5 × 10^5 BTs of T. cruzi per mouse in 0.2 mL PBS [56]. The mice were treated by oral route (~200 µL) once daily for 5 consecutive days. The treatment for mice treated in the acute and chronic phases began when the infection was confirmed (9th day post-infection (dpi)) and was established that the animals had entered the chronic phase (100th dpi), respectively.
(§6) The mice were divided into six groups (n = 3 per group): 0, negative control group (uninfected and untreated mice); I, positive control group (infected and untreated mice); II, BZN group (mice infected and treated with BZN); III, 8 group (mice infected and treated with 8); IV, 10 group (mice infected and treated with 10); V, 15 group (mice infected and treated with 15). The tested compounds and BZN were prepared at 2 mg·mL^−1 in an aqueous suspension vehicle containing 5% (v/v) DMSO and 0.5% (w/v) hydroxypropyl methylcellulose, as previously reported. Therefore, doses of 20 mg·kg^−1 per day were administered for 5 consecutive days, and vehicle only was administered in the negative and positive control groups.
as §3

[9] = tested on: Trypanosoma cruzi intracellular amastigotes; experiment: Screening against intracellular amastigotes in Vero cells (Giemsa counting); assay type: cell-based; conditions: for Selectivity Index Amast.: IC50 Vero cells/IC50 amastigotes; for IC50: Trypanosoma cruzi, Table 1, intracellular amastigotes in Vero cells, 72 h, read-out: Activity IC50 Amast.
Description: as §2

[10] = tested on: Trypanosoma cruzi; experiment: Parasitemia reactivation after immunosuppression in BALB/c mice; assay type: in vivo; conditions: 20 mg/kg per day for 5 days; for reactivation of infection after immunosuppression (in words): acute and chronic CD; for reactivation of infection after immunosuppression: compared to untreated mice
Description: Secondly, the experimental cure was determined using a double checking widely used in in vivo trypanocidal trials. This double checking—based on immunosuppression and PCR (Figure 2B,C, respectively)—was performed to evaluate the treatment effectiveness and the disease extent in both acute and chronic CD at the end of the in vivo timeline. The mice whose parasitemia and PCR remain negative after immunosuppression are considered cured.
Immunosuppression enhances the reactivation of any residual infection, which is proportional to the parasite survival rate.
as §5, §6, §3

[11] = tested on: Trypanosoma cruzi Fe-SOD; experiment: SOD enzymatic inhibition, Fe-SOD; assay type: biochemical
Description: as §1

[12] = tested on: Trypanosoma cruzi; experiment: PCR of seven organs/tissues of treated BALB/c mice (Spliced Leader sequence); assay type: in vivo
Description: To assess the efficacy of potential candidates by confirming the absence of infection in the target locations, PCR was carried out at the end of the in vivo timeline (Figure 2C). PCR was positive in seven organs/tissues for the untreated (control) mice groups in both phases, showing the presence of the typical nested amastigotes of the chronic CD.
as §5, §6, §3
Figure 2 (A) Parasitemia profiles of each group of mice infected with Trypanosoma cruzi and treated during the acute Chagas disease over a period of 55 days: control (untreated), benznidazole (BZN), 8, 10 and 15. Treatment days are represented in grey. […]. (B) Parasitemia reactivation by fresh blood in the chronic Chagas disease after the immunosuppression cycles for each group of mice treated during the acute and chronic phases of the disease: control (untreated), benznidazole (BZN), 8, 10, and 15. […]. (C) PCR analysis of seven organs/tissues with the Trypanosoma cruzi Spliced Leader (SL) intergenic region sequence in the chronic Chagas disease for each group of mice treated during the acute and chronic phases of the disease: (a) control (untreated), (b) benznidazole, (c) 8, (d) 10, and (e) 15.

[13] = tested on: epimastigotes of Trypanosoma cruzi; experiment: Flow cytometry of nucleic acid levels (acridine orange); assay type: cell-based; conditions: IC25 concentrations, 72 h
Description: The untreated and treated epimastigotes of T. cruzi described in the NMR analysis were collected by centrifugation, washed three times in PBS and stained with […] rhodamine 123 (Rho) (Sigma-Aldrich) or acridine orange (AO) (Sigma-Aldrich) dyes in 0.5 mL PBS for 20 min at 28 °C [63]. Control epimastigotes with a fully depolarized mitochondrion were obtained by incubation for 40 min with 10 mM KCN prior to Rho loading. Non-stained parasites were also included. After elapsed time, epimastigotes were immediately processed and analyzed by flow cytometry as previously reported.
Figure S2. Nucleic acids levels of Trypanosoma cruzi exposed to benznidazole (BZN) and compounds at […]
Inhibition, in percentage, in the nucleic acids levels with respect to untntreated parasites. Values constitute means of three separate determinations ± standard deviation. Significant differences between untreated and treated parasites for α = 0.05.
as §4

[14] = assay type: in vivo; conditions: BALB/c mice, 20 mg/kg per day for 5 days
Description: Finally, biochemical analyses were performed to assess the toxicity associated to the treatment of compound 8. Kidney, heart and liver biochemical markers were measured, including values from uninfected and BZN-treated mice (Table S2). […] The low toxicity allows compound 8 to be tested at higher doses, establishing an improved treatment schedule based on pharmacokinetics in order to reach a total parasite clearance.
as §3

[15] = Table 1, T. cruzi epimastigotes, 48 h treatment + 24 h resazurin, read-out: Activity IC50 Epimast.
[16] = Table S1, cultured epimastigote form of T. cruzi, read-out: Activity IC50

T1 sequence (P00441 whole entry): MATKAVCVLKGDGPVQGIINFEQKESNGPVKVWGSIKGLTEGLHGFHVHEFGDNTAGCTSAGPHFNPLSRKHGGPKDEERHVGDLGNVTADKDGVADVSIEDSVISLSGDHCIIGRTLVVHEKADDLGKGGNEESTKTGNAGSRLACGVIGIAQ

N#C[Se]Cc1ccccc1[N+](=O)[O-] [compound 15]
Selectivity Index Epimast. [1]: 20
IC50 [1, 15]: 0.9 ± 0.1 µM
IC50 [1, 16]: ≤ 10 µM
IC50 [2]: > 100 µM
infection rate and average number of amastigotes per Vero cell [3]: decrease in both infection rate and number of amastigotes per cell in a time-dependent manner
Selectivity Index Trypomast. [4]: 14
IC50 [4]: 1.3 ± 0.3 µM
CC50 [5]: 17.9 ± 1 µM
excretion of metabolites versus untreated parasites (in words) [6]: strikingly increased
total anti-T. cruzi IgG levels and splenomegaly [7]: Slight or non-significant reductions
parasitemia levels (counting BTs) during the acute CD [8]: non-significant differences
Selectivity Index Amast. [9]: 36
IC50 [9]: 0.5 µM
reactivation of infection after immunosuppression (in words) [10]: non-significant differences
SOD inhibitory activity (in words) ([11]; 100 to 0.1 µM): no inhibitory activity

O=C(Cn1ccnc1[N+](=O)[O-])NCc1ccccc1 [BZN, benznidazole, reference compound]
IC50 [4]: 12.4 ± 1.1 µM
IC50 [5]: 80.4 ± 7.1 µM
total anti-T. cruzi IgG levels and splenomegaly [7]: significant reduction
parasitemia levels (counting BTs) during the acute CD [8]: remarkable parasitemia reduction
negative PCR (parasite-free locations) ([12]; mice treated in acute CD): 2/7
negative PCR (parasite-free locations) ([12]; mice treated in chronic CD): 3/7
reduction in nucleic acid levels with respect to untreated parasites [13]: 22.4%
IC50 [9]: 8.3 ± 0.7 µM
reactivation of infection after immunosuppression ([10]; mice treated in acute CD): 81%
reactivation of infection after immunosuppression ([10]; mice treated in chronic CD): 68%
kidney, heart and liver biochemical markers [14]: disturbed 2 days after treatment

CSc1ccc(C[Se][Se]Cc2ccc(SC)cc2)cc1 [compound 10]
Selectivity Index Epimast. [1]: 75
IC50 [1, 15]: 1.8 ± 0.2 µM
IC50 [1, 16]: ≤ 10 µM
IC50 [2]: > 100 µM
infection rate and average number of amastigotes per Vero cell [3]: decrease in both infection rate and number of amastigotes per cell in a time-dependent manner
Selectivity Index Trypomast. [4]: 79
IC50 [4]: 1.7 ± 0.3 µM
CC50 [5]: 135 ± 6.3 µM
variation of excreted metabolites versus untreated parasites [6]: < 10%
total anti-T. cruzi IgG levels and splenomegaly [7]: Slight or non-significant reductions
parasitemia levels (counting BTs) during the acute CD [8]: slight activity
Selectivity Index Amast. [9]: 112
IC50 [9]: 1.2 ± 0.2 µM
reactivation of infection after immunosuppression (in words) [10]: light activity
Fe-SOD inhibition ([11]; at 100 µM): 100%
